# Assay results from ChEMBL document CHEMBL1201862, “PubChem BioAssay data set” (2004).
# Calls of active or inactive are those of the source.
# What was measured:
# BJ [1] = assay: BJ-TERT fibroblast viability loss – cell-based, RAS-independent, luminescence, dose response (AID 1933); format: functional; details: Homo sapiens
# [2] = target: T1, Luciferin 4-monooxygenase (Photinus pyralis, UniProt P08659); assay: Counter Screen for Luciferase-based Assay Positives. [Related pubchem assays: 620, 618, 411 ]
# BJ [3] = assay: cells; format: functional, cell-based; details: Homo sapiens
# [4] = target: T1, Luciferin 4-monooxygenase; assay: inhibition of purified Photinus pyralis luciferase – biochemical, luminescence, dose response (AID 1891)
# [5] = Luminescence Cell-Based Dose Confirmation HTS to Identify Inhibitors of Platelet Dense Granule Release. [Related pubchem assays: 1663 (Primary HTS), 1678 (Summary of Project)]; format: functional
# HT-1080 = assay: HT1080 cell viability loss – fluorescence readout (AID 620); format: functional, cell-based; details: Homo sapiens
# BJ [6] = assay: BJ-TERT-LT-ST fibroblast viability loss – cell-based, RAS-independent, luminescence, dose response (AID 1935); format: functional; details: Homo sapiens;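 further: BJ fibroblasts immortalized with TERT plus LT and ST oncogenes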
# [7] = DRD fibroblast viability loss – cell-based, non-viral oncogenic, luminescence, dose response (AID 1934); format: functional; details: Homo sapiens
# [8] = target: Heat shock protein HSP 90-alpha (Homo sapiens, UniProt P07900); format: functional, organism-based
# BJ [9] = assay: growth inhibition of engineered Ras-driven BJ cells – cell-based, alamar blue fluorescence, cherrypicked samples, dose response (AID 2631); format: functional; details: Homo sapiens;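 further: confirmatory dose-response assay in RAS-dependent BJ fibroblasts engineered with TERT, LT and ST, with cytotoxicity read by fluorescence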
# [10] = target: 26S proteasome non-ATPase regulatory subunit 14 (Homo sapiens, UniProt O00487); assay: inhibition of proteasome subunit RPN11 – biochemical, fluorescence polarization, uHTS hits, confirmation (AID 602368); format: functional
# [11] = target: 72 kDa type IV collagenase (Homo sapiens, UniProt P08253); assay: Dose Response validation of uHTS RPN11 inhibitor hits using a MMP-2 Fluorescence assay.; format: functional
# Prothrombin = Prothrombin (Bos taurus, UniProt P00735); assay: thrombin protease inhibitors – biochemical, fluorescence polarization, uHTS hits, dose response (AID 602369); format: functional
# [12] = system: Streptococcus sp. 'group A'; assay: Streptococcus pyogenes SK(-)GAS viability under kanamycin – luminescence, BacTiterGlo, confirmation, counter-screen for streptokinase expression inhibitor project, dose response (AID 1900); format: functional, organism-based
# Streptokinase A = target: T2, Streptokinase A (Streptococcus pyogenes serotype M1, UniProt P10520); assay: viability-normalized secreted streptokinase activity reduction – plasminogen activation absorbance, OD405, dose response (AID 1914); format: functional, Streptococcus pyogenes M1 GAS;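 further: secreted streptokinase activity via plasminogen activation per viability signal from cell pellet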
# T2 sequence (P10520 whole entry): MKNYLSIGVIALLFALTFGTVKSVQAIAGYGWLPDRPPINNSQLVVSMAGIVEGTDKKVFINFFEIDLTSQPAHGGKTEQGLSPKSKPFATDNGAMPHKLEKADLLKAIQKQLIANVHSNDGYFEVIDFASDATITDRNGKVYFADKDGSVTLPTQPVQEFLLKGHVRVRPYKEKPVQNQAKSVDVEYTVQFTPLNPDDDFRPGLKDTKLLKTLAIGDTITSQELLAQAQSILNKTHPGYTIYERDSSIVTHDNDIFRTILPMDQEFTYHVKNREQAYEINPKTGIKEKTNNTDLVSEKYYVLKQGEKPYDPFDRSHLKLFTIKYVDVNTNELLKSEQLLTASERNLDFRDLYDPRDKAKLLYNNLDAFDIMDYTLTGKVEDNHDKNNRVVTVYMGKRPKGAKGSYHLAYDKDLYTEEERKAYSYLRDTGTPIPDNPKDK
# Streptococcus = assay: GAS UMAA2166 growth inhibition – luminescence, BacTiterGlo, counter-screen for streptokinase expression inhibitor project, dose response (AID 1915); format: functional, organism-based;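 further: potency for reduction of bacterial viability or growth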
# [13] = Luminescence Cell-Based Dose Retest to Confirm Inhibitors of Cancer Stem Cells. [Related pubchem assays (depositor defined):AID2717, AID2721]; format: functional; details: Homo sapiens
# [14] = target: T3, Short transient receptor potential channel 4 (Mus musculus, UniProt Q9QUQ5); assay: block of DAMGO-driven TRPC4 calcium entry – cell-based, HEK293 TRPC4/mu-opioid, Fluo-4 calcium, dose response (AID 434942); format: functional;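 further: potency of inhibitors blocking the TRPC4 calcium response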
# T3 sequence (Q9QUQ5 whole entry): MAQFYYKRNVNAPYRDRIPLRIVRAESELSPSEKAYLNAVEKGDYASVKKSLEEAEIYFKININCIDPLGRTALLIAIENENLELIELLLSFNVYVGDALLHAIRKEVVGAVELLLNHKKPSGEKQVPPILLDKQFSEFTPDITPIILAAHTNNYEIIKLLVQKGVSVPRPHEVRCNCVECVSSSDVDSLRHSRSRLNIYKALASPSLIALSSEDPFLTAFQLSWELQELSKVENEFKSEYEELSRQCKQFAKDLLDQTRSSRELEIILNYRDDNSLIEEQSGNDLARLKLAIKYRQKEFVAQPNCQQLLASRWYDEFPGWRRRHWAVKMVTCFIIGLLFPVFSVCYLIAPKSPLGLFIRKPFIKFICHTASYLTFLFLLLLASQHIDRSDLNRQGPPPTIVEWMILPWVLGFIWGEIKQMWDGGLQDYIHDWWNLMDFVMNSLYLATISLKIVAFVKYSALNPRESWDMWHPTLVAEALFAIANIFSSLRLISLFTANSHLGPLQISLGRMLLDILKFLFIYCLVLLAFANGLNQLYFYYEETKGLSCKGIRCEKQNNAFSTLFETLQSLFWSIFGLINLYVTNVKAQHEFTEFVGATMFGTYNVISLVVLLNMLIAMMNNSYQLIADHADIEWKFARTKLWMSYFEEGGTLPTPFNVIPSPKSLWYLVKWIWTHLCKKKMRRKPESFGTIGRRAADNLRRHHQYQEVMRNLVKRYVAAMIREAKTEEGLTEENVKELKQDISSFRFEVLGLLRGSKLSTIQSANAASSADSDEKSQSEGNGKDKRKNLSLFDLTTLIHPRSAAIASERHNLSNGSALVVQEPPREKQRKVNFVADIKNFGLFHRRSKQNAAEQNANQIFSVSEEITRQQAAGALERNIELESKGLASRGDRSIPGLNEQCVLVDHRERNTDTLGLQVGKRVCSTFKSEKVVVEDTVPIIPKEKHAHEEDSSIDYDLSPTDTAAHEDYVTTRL
# HEK293 [15] = assay: inhibition of NOD1-driven NF-kB reporter – cell-based, luminescence, uHTS, primary screen (AID 1578); format: functional; details: Homo sapiens
# HEK293 [16] = assay: cells; format: functional, cell-based; details: Homo sapiens
# HEK293 [17] = assay: cells; format: functional, cell-based; details: Homo sapiens; remark: listed apart in the source
# HEK293 [18] = assay: NOD2 signaling inhibitors in MDP-stimulated cells, cell-based, uHTS, luminescence (AID 2001); format: functional; details: Homo sapiens
# Coagulation factor XII = target: T4, Coagulation factor XII (Homo sapiens, UniProt P00748); format: functional;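 further: activated factor XIIa alpha cleaving a fluorogenic AMC peptide substrate; inhibitor potency from loss of enzyme activity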
# T4 sequence (P00748 whole entry): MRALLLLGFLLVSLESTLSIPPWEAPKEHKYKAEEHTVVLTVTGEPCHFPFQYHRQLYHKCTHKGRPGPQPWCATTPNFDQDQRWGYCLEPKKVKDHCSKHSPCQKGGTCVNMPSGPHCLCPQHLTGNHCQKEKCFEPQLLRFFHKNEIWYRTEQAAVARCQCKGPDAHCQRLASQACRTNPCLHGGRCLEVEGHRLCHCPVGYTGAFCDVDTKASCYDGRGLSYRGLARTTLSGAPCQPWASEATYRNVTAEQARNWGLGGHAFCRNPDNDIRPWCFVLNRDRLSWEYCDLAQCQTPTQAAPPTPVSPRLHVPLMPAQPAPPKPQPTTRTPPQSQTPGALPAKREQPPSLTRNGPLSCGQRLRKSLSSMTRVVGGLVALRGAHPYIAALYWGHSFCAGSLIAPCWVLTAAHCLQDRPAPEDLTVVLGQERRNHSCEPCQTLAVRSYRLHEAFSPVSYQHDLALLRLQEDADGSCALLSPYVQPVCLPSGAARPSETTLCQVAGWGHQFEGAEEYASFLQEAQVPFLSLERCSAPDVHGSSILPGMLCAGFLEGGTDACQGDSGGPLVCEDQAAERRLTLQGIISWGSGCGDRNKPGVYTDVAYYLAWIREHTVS
# [19] = target: T5, Lysosomal acid glucosylceramidase (Homo sapiens, UniProt P04062); assay: Dose response cell-based high throughput screening assay to identify enhancers of beta-glucosidase activity. [Related pubchem assays: 784 ]; format: functional
# T5 sequence (P04062 whole entry): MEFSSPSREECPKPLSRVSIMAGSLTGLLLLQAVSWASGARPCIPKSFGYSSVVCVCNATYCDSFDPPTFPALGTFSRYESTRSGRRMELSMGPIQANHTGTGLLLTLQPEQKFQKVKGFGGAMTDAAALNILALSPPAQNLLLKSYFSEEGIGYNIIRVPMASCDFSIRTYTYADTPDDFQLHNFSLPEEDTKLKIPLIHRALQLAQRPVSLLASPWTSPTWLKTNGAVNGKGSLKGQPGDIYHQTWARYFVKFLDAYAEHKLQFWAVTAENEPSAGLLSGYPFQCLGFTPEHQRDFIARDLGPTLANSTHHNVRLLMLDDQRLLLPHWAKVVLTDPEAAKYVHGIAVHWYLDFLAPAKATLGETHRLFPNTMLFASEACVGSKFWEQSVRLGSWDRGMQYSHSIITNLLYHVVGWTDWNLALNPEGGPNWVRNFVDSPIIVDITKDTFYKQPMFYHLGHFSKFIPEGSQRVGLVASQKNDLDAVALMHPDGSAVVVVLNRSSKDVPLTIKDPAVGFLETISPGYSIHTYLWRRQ
# [20] = viability loss of HMLE_sh_eGFP cells – cell-based, luminescence, counter-screen for HMLE_sh_ECad selective toxicity project, dose response (AID 463074); format: functional, Homo sapiens;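 further: HMLE human mammary epithelial cells expressing control shRNA against eGFP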
# [21] = target: Peroxisome proliferator-activated receptor gamma/Nuclear receptor coactivator 1 (Homo sapiens, UniProt P37231); assay: (§1) TR-FRET dose response biochemical High Throughput Screening assay for agonists of the steroid receptor coactivator 1 (SRC-1) recruitment by the peroxisome proliferator-activated receptor gamma (PPAR gamma): non-selective agonists. [Related pubchem assays (depositor defined):AID1300, AID1808, AID504735, AID631]; format: protein assay
# [22] = target: Peroxisome proliferator-activated receptor gamma/Nuclear receptor coactivator 3 (Homo sapiens, UniProt P37231); assay: as §1, with “3 (SRC-3)” for “1 (SRC-1)”, “assays: 1301 (Confirmation screen.), 1048 (Primary screen.)]” for “assays (depositor defined):AID1300, AID1808, AID504735, AID631]”; format: functional
# [23] = target: Peroxisome proliferator-activated receptor gamma/Nuclear receptor coactivator 2 (Homo sapiens, UniProt P37231); assay: TR-FRET dose response biochemical High Throughput Screening assay for agonists of the steroid receptor coactivator 2 (SRC-2) recruitment by the peroxisome proliferator-activated receptor gamma (PPAR gamma): non-selective agonists. [Related pubchem assays: 1297, 1032 ]; format: functional
# T1 sequence (P08659 whole entry): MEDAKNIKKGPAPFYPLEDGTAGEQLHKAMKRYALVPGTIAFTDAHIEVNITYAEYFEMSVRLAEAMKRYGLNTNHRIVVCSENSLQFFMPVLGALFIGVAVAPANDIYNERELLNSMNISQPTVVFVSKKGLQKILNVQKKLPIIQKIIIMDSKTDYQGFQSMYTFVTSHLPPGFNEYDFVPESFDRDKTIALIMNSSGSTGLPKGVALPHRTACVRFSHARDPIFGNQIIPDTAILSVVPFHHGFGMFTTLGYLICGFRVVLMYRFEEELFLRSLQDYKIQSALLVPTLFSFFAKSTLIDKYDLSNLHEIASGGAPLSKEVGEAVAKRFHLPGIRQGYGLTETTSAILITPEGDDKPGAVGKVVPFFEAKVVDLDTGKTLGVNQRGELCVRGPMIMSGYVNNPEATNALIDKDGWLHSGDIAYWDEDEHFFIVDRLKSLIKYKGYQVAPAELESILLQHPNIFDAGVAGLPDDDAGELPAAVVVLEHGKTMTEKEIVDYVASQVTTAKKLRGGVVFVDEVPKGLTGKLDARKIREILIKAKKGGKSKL
# 26S proteasome non-ATPase regulatory subunit 14, sequence (O00487 whole entry): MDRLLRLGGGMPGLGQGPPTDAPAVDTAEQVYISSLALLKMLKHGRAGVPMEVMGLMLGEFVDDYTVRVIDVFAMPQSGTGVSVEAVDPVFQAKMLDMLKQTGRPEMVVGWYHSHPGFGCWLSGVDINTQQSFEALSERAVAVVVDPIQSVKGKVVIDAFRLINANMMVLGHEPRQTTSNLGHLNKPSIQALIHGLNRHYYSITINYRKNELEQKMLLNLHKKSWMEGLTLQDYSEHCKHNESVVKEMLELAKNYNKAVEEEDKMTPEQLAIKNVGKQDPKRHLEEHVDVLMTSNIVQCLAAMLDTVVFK
# Peroxisome proliferator-activated receptor gamma/Nuclear receptor coactivator 1, sequence (P37231 whole entry): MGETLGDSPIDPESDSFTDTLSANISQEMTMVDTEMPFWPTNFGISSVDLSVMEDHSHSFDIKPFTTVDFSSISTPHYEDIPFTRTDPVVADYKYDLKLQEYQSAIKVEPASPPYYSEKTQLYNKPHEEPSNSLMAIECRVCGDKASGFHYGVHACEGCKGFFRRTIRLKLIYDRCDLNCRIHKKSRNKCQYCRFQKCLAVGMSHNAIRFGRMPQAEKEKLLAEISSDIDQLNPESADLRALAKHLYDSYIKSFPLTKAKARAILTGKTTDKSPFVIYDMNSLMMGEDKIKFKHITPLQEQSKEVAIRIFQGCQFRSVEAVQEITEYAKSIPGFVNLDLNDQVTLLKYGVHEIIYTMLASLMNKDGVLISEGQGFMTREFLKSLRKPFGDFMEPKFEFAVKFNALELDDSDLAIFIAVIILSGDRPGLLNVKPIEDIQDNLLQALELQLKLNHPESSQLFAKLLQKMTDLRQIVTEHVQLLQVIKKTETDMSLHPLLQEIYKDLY
# Peroxisome proliferator-activated receptor gamma/Nuclear receptor coactivator 1, sequence (Q15788 whole entry, further chain): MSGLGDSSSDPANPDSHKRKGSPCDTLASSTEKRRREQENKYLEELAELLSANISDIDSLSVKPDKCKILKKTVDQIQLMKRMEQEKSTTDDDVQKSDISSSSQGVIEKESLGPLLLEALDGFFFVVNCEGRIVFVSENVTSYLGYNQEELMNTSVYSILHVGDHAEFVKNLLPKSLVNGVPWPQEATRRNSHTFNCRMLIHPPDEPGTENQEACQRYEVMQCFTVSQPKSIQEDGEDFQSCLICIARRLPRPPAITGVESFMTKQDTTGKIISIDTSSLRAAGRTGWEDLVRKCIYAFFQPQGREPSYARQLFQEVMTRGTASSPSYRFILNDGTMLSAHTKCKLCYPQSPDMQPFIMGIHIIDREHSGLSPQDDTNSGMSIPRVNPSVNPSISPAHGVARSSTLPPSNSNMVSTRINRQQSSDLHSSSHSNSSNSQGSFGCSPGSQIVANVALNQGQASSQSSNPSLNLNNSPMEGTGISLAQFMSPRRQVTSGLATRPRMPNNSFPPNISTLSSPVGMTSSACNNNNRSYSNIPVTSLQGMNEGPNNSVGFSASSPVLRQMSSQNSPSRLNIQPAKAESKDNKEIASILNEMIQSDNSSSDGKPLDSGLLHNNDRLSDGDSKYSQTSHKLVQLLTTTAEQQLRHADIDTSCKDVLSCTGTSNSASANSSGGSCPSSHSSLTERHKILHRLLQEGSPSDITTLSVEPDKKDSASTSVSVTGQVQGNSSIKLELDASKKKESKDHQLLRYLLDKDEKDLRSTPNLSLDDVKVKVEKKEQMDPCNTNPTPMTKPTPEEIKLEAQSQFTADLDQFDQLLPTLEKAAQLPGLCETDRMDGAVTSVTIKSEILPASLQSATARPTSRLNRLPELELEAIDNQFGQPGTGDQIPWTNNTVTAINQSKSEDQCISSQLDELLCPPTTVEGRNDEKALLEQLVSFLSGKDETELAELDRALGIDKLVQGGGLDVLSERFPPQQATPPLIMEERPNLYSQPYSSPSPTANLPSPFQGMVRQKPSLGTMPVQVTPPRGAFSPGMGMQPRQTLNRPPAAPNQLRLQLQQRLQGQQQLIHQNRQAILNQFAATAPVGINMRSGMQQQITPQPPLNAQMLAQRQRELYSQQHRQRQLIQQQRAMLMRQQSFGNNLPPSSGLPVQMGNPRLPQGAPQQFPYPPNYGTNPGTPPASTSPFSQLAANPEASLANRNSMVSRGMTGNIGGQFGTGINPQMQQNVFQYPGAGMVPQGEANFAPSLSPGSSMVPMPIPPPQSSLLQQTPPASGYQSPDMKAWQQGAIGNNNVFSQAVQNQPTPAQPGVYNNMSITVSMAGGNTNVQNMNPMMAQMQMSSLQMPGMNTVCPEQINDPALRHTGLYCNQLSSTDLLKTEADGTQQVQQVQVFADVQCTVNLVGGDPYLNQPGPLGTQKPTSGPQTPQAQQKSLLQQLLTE
# Peroxisome proliferator-activated receptor gamma/Nuclear receptor coactivator 3, sequence (P37231 whole entry): as the sequence (P37231 whole entry) above
# Peroxisome proliferator-activated receptor gamma/Nuclear receptor coactivator 3, sequence (Q9Y6Q9 whole entry, further chain): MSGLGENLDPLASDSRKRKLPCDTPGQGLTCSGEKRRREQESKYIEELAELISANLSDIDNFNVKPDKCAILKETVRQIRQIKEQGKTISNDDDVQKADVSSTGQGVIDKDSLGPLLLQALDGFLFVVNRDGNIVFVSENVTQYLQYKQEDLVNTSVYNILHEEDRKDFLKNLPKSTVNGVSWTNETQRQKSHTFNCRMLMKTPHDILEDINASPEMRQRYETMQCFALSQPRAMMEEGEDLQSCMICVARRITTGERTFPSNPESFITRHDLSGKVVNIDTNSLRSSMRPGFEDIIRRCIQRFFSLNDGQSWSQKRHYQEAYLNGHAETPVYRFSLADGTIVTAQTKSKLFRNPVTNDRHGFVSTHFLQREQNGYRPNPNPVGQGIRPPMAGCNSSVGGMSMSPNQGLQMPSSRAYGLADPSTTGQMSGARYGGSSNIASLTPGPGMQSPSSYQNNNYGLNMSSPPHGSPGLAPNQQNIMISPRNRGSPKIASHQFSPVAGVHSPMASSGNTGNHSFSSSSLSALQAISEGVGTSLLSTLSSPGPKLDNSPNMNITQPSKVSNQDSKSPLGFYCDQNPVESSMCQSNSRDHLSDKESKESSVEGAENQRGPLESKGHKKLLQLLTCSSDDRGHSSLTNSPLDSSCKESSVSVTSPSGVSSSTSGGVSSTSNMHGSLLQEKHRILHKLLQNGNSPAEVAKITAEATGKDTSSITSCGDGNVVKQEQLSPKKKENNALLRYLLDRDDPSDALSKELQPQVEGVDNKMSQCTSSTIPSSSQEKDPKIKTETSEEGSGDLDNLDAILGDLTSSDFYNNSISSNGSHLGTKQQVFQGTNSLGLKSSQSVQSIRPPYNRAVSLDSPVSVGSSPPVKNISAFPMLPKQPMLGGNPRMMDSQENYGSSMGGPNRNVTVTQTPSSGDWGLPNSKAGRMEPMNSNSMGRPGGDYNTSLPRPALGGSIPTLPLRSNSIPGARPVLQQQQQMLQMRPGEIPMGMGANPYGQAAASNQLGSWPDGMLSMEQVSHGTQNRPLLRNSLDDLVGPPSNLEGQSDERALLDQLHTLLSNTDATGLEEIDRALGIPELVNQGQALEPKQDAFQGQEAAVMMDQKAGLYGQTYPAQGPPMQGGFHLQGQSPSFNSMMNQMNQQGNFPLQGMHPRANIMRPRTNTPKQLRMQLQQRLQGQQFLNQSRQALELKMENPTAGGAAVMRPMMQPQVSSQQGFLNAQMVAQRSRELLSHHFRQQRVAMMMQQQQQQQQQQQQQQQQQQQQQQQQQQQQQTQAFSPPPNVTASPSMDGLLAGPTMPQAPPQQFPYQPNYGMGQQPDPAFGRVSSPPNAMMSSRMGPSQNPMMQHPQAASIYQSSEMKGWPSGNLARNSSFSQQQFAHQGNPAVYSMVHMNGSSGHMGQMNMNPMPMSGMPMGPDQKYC
structure (smiles),measurement,setting,value
CCOc1ccc2nc(NC(=O)c3ccoc3C)sc2c1,EC50,BJ [1],2.43 µM (active)
same,EC50,[2],6.49 µM (active)
same,EC50,BJ [3],1.79 µM (active)
same,EC50,[4],< 0.088 µM (active)
same,EC50,[5],0.231 µM (active)
same,EC50,HT-1080,> 50 µM (not active)
same,EC50,BJ [6],6.32 µM (active)
same,EC50,[7],1.97 µM (active)
same,AC50,[8],2.02 µM (active)
same,EC50,BJ [9],> 133 µM (inactive)
Cc1cc(C)cc(NC(=O)Cn2nnc(C(=O)NCc3ccc4c(c3)OCO4)c2N)c1,IC50,[10],22.9 µM (active)
same,IC50,[11],> 100 µM (inactive)
same,IC50,Prothrombin,72.2 µM (active)
O=C(O)c1ccc(CSc2nc(-c3ccc(Cl)cc3)cc(C(F)(F)F)n2)cc1,EC50,[12],4.41 µM (active)
same,EC50,Streptokinase A,> 150 µM (not active)
same,EC50,Streptococcus,11.7 µM (active)
same,AC50,[13],5.76 µM (active)
same,EC50,[14],5.96 µM (active)
CN(c1ccccc1)S(=O)(=O)c1cc(C(=O)Nc2nc3ccccc3[nH]2)ccc1Cl,EC50,HEK293 [15],8.46 µM (active)
same,IC50,HEK293 [16],5.37 µM (active)
same,IC50,HEK293 [17],> 20 µM (inactive)
same,IC50,HEK293 [18],6.72 µM (active)
COc1ccc(-c2cc(C(=O)c3c(N)n(C)c(=O)n(C)c3=O)c3ccccc3n2)cc1OC,IC50,Coagulation factor XII,> 50 µM (inactive)
COc1ccc(N(CC(=O)Nc2ccccc2SC)S(C)(=O)=O)cc1OC,IC50,Coagulation factor XII,> 50 µM (inactive)
CCn1c(SCC(=O)N2CCN(c3ccccc3)CC2)nnc1-c1cc2cc(Cl)ccc2o1,EC50,[19],> 50 µM (not active)
same,IC50,Coagulation factor XII,> 50 µM (inactive)
CC1=C(C(=O)Nc2ccccc2)C(c2ccco2)C(C#N)=C(SCc2ccccc2)N1 (stereo unspecified),AC50,[13],17.5 µM (active)
same,AC50,[20],28.4 µM (active)
O=C(Nc1nc2c(s1)CN(Cc1ccccc1)CC2)c1cccc(S(=O)(=O)N2CCc3ccccc32)c1,EC50,[21],10.8 µM (inactive)
same,EC50,[22],28 µM (not active)
same,EC50,[23],14.8 µM (not active)
